According to patent publication US20080139489A1, “USE OF KETOLIDES FOR PREVENTING ARTERIAL THROMBOTIC COMPLICATIONS RELATED TO ATHEROSCLEROSIS” (Aventis Pharma S.A., priority 1997, published 2008):

Tested on: rabbit platelets
Test: In vitro platelet aggregation (turbidimetry, platelet-rich plasma)
Assay type: cell-based
Settings: for activity on this in vitro platelet aggregation test: result in words, concentration and aggregating agent not stated
Experimental: The platelet aggregation is measured by the turbidimetry method inspired by Born, by detecting the optical transmission through a platelet-rich plasma (PRP) to which and aggregating agent has been added. When the platelets aggregate, the plasma becomes clear and the optical transmission increases. Blood is taken (3 tubes per rabbit) by cardiac puncture from a rabbit into tubes containing sodium citrate. To obtain the platelet-rich plasma (PRP), the tubes are centrifuged at 160 g for 10 minutes. The supernatants are collected (PRP) and the pellet is re-centrifuged at 2000 g for 15 minutes to obtain the platelet-poor plasma (PPP). By dilution with the PPP, the PRP is adjusted to a concentration of 300,000 platelets per mm^3±10%. The counting is carried out using a Coulter ZM counter. Tubes containing 320 μl of PRP are incubated at +37° C. for 30 minutes in pre-incubation wells. The aggregometer is calibrated with the PPP for an optical transmission of 100% corresponding to a complete aggregation, and with the PRP obtained from the same rabbit for an optical transmission of 0% corresponding to the absence of aggregation. The test product P is added in a volume of 40 μl. After incubation for 2 minutes, the aggregating agent (10 μM ADP, 0.2 mM sodium arachidonate or collagen […]) is added in a volume of 40 μl. The aggregation begins immediately and can be seen on the printer. On the plot obtained, the height of the aggregation curve is measured in cm from the baseline before addition of the aggregating agent, and then converted into mVolts (=1/OD) using the formula 10 mV=2.5 cm.

CC(=O)Oc1ccccc1C(=O)O [Aspirin, reference compound]
inhibition at 50 µM (Oryctolagus cuniculus, Platelet, product concentration 5 × 10^−5 M, rabbit platelets, arachidonic acid 0.2 mM, read-out: % of inhibition of the aggregation induced by arachidonic acid): 85% | inhibition at 100 µM (Oryctolagus cuniculus, Platelet, product concentration 10^−4 M, rabbit platelets, arachidonic acid 0.2 mM, read-out: % of inhibition of the aggregation induced by arachidonic acid): 100% | inhibition at 10 µM (Oryctolagus cuniculus, Platelet, product concentration 10^−5 M, rabbit platelets, arachidonic acid 0.2 mM, read-out: % of inhibition of the aggregation induced by arachidonic acid): 13% | inhibition at 1 µM (Oryctolagus cuniculus, Platelet, product concentration 10^−6 M, rabbit platelets, arachidonic acid 0.2 mM, read-out: % of inhibition of the aggregation induced by arachidonic acid): 8%

CCC1OC(=O)C(C)C(=O)C(C)C(OC2OC(C)CC(N(C)C)C2O)C(C)(OC)CC(C)C(=O)C(C)C2N(CCCCn3cnc(-c4cccnc4)n3)C(=O)OC12C (centres unmarked) [Product P1]
activity on this in vitro platelet aggregation test: good activity

CCC1OC(=O)C(C)(F)C(=O)C(C)C(OC2OC(C)CC(N(C)C)C2O)C(C)(OC)CC(C)C(=O)C(C)C2N(CCCCn3cnc(-c4cccnc4)c3)C(=O)OC12C [Product P2, 11,12-dideoxy-3-de((2,6-dideoxy-3-C-methyl-3-O-methyl-alpha-L-ribohexopyranosyl)oxy)-2-fluoro-6-O-methyl-3-oxo-12,11-(oxycarbonyl((4-(4-(3-pyridyl)-1H-imidazol-1-yl)butyl)-imino))erythromycin]
activity on this in vitro platelet aggregation test: good activity

CCC1OC(=O)C(C)C(=O)C(C)C(OC2OC(C)CC(N(C)C)C2O)C(C)(OC)CC(C)C(=O)C(C)C2N(CCCCn3cnc(-c4cccnc4)c3)C(=O)OC12C [Product P3, 11,12-dideoxy-3-de((2,6-dideoxy-3-C-methyl-3-O-methyl-alpha-L-ribohexopyranosyl)oxy)-6-O-methyl-3-oxo-12,11-(oxycarbonyl((4-(4-(3-pyridyl)-1H-imidazol-1-yl)butyl)imino))erythromycin]
activity on this in vitro platelet aggregation test: good activity

CC[C@H]1OC(=O)[C@H](C)C(=O)[C@H](C)[C@@H](O[C@@H]2O[C@H](C)C[C@H](N(C)C)[C@H]2O)[C@](C)(OC)C[C@@H](C)C(=O)[C@H](C)[C@H]2N(COCCn3cnc(-c4cccnc4)c3)C(=O)O[C@]12C [Product P]
% of inhibition of the aggregation induced by arachidonic acid (product concentration 10^−4 M, rabbit platelets, arachidonic acid 0.2 mM): 90% | % of inhibition of the aggregation induced by arachidonic acid (product concentration 10^−5 M, rabbit platelets, arachidonic acid 0.2 mM): 73% | % of inhibition of the aggregation induced by arachidonic acid (product concentration 10^−6 M, rabbit platelets, arachidonic acid 0.2 mM): 42% | % of inhibition of the aggregation induced by arachidonic acid (product concentration 10^−7 M, rabbit platelets, arachidonic acid 0.2 mM): 7%
